The target of one experiment is T1, Progesterone receptor (Bos taurus, UniProt Q690N0).
T1 sequence (Q690N0 whole entry): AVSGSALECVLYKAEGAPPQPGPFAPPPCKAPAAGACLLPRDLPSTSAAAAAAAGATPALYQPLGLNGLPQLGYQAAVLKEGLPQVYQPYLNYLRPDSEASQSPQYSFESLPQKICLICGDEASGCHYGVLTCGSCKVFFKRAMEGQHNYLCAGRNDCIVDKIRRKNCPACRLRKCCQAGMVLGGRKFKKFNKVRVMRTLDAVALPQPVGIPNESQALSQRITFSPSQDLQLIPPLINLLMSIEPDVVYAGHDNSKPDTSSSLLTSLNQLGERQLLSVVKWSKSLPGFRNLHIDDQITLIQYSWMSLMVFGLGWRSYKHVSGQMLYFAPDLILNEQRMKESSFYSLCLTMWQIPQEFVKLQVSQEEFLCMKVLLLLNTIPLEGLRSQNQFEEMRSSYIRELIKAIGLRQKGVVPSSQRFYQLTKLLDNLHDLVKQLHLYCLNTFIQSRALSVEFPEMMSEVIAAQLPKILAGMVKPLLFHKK
As to the kind of experiment: DRUGMATRIX: Progesterone radioligand binding (ligand: [3H] R-5020). The note with it: Not Active = under 50% inhibition at 10 µM. In kind it is tissue-based, Uterus.

A further experiment has as its target T2, D(4) dopamine receptor (Homo sapiens, UniProt P21917).
T2 sequence (P21917 whole entry): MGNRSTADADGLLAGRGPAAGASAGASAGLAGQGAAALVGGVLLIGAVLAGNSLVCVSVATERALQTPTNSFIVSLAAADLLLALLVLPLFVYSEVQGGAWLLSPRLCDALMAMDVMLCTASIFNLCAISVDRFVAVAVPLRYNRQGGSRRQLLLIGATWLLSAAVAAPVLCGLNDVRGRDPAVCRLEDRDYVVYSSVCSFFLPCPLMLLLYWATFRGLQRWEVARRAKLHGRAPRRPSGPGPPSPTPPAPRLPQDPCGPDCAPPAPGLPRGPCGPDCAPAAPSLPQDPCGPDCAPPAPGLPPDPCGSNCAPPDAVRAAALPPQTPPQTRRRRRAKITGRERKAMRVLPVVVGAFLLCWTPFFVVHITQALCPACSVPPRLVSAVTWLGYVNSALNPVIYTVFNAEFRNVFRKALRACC
As to the kind of experiment: DRUGMATRIX: Dopamine D4.2 radioligand binding (ligand: [3H] Spiperone). The class given is cell membranes, CHO-K1, Membrane. To be noted: Not Active = under 50% inhibition at 10 µM.

Experiment [1] can be described thus: DRUGMATRIX: GABAA, Chloride Channel, TBOB radioligand binding (ligand: [3H] TBOB). The class given is cell membranes, Rattus norvegicus, Wistar, Cerebral cortex, Membrane. To be noted: Not Active = under 50% inhibition at 10 µM.
Another experiment deals with T3, Estrogen receptor (Homo sapiens, UniProt P03372).
T3 sequence (P03372 whole entry): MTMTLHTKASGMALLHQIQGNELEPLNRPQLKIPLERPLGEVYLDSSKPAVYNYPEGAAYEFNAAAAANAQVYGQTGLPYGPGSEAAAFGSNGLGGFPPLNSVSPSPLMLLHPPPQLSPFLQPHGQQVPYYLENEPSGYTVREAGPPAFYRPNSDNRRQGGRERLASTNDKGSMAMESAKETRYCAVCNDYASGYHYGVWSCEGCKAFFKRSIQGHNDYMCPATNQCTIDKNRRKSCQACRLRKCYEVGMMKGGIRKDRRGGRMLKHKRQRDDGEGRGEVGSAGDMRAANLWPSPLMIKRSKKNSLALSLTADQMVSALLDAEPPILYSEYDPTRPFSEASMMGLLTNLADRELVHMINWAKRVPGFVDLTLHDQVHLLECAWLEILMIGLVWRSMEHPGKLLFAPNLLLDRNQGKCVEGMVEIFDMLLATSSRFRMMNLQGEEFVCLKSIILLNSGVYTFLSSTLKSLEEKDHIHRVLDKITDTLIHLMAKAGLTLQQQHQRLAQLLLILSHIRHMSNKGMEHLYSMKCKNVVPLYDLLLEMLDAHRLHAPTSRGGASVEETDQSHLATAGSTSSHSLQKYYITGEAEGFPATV
To be noted: sf9.

Experiment [2] addresses 5-hydroxytryptamine receptor 2B (Homo sapiens, UniProt P41595). In kind it is cell membranes, CHO-K1, Membrane.
The target in experiment [3] is T4, Alpha-1B adrenergic receptor (Rattus norvegicus, UniProt P15823).
T4 sequence (P15823 whole entry): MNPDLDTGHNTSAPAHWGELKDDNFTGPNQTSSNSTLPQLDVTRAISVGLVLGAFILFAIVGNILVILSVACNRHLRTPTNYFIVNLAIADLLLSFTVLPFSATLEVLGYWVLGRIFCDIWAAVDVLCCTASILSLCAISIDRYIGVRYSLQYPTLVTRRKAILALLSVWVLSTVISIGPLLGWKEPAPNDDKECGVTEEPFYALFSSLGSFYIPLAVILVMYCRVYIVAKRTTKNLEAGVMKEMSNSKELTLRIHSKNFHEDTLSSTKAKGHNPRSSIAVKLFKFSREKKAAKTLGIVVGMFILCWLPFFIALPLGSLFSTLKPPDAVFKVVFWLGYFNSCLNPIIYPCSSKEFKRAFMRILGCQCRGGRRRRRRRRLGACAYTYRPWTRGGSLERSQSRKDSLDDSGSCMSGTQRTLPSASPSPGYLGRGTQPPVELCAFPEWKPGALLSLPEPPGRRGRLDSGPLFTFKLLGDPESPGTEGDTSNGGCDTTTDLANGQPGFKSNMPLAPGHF
As to the kind of experiment: DRUGMATRIX: Alpha-1B adrenergic receptor radioligand binding (ligand: prazosin). In kind it is cell membranes, Wistar, Liver, Membrane. To be noted: Not Active = under 50% inhibition at 10 µM.

The values that follow come from ChEMBL document CHEMBL1909046, “DrugMatrix in vitro pharmacology data”.

Chain of 5-hydroxytryptamine receptor 2B (P41595 whole entry): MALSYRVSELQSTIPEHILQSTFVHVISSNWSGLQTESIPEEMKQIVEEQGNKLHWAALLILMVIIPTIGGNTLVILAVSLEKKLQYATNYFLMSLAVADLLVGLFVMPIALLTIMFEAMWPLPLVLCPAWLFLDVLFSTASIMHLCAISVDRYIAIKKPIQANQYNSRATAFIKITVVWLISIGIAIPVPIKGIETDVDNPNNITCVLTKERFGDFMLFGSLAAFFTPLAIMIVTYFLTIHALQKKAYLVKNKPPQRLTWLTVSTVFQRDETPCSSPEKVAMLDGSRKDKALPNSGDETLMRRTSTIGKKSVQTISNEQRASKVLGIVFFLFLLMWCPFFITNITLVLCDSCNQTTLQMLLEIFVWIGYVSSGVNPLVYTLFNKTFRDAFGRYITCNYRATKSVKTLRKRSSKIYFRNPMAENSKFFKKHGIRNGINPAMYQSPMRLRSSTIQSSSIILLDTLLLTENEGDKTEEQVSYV

For `COc1ccc(CCN(C)CCCC(C#N)(c2ccc(OC)c(OC)c2)C(C)C)cc1OC` (stereo not drawn), the IC50 entry (at Progesterone receptor; at D(4) dopamine receptor (cho-k1); in experiment [1]; against Estrogen receptor) was “Not Active” each time. In experiment [1], the Ki (commonly the equilibrium dissociation constant of an inhibitor or competing ligand from its target) was “Not Active”.
In the case of `CN(C)CCOC(c1ccccc1)c1ccccc1` [DIPHENHYDRAMINE], the IC50 result at Progesterone receptor, at D(4) dopamine receptor (cho-k1) and against Estrogen receptor was “Not Active” in each case.
On to `Clc1ccc(COC(Cn2ccnc2)c2ccc(Cl)cc2Cl)cc1` (stereo not drawn) [ECONAZOLE], for which the figures for the IC50 on Progesterone receptor (read-out: IC50), at D(4) dopamine receptor (read-out: IC50) and against Estrogen receptor were 10.2 µM, 9.33 µM and “Not Active”, respectively. Moreover, the values for the Ki at Progesterone receptor (read-out: Ki) and on D(4) dopamine receptor (read-out: Ki) were 1.33 µM and 3.27 µM, respectively.
For the compound `CCN(CC)CCOc1ccc(/C(=C(/Cl)c2ccccc2)c2ccccc2)cc1` [ENCLOMIPHENE], the half-inhibitory concentration (IC50) result on Progesterone receptor and on D(4) dopamine receptor (cho-k1) was “Not Active” each time.
With `Fc1ccc(C(c2ccc(F)cc2)N2CCN(C/C=C/c3ccccc3)CC2)cc1` [FLUNARIZINE], the 50% inhibitory concentration (IC50) entry at Progesterone receptor, at D(4) dopamine receptor (cho-k1) and on Estrogen receptor was “Not Active” in each case.
For the compound `CNCCC(Oc1ccc(C(F)(F)F)cc1)c1ccccc1` (stereo not drawn) [FLUOXETINE], the IC50 entry (at Progesterone receptor; on D(4) dopamine receptor (cho-k1); in experiment [2] (cho-k1)) was “Not Active” throughout.
In the case of `Cc1ccc(NC(=O)c2ccc(CN3CCN(C)CC3)cc2)cc1Nc1nccc(-c2cccnc2)n1` [IMATINIB], the IC50 entry (at Progesterone receptor; at D(4) dopamine receptor (cho-k1); in experiment [2] (cho-k1); against Estrogen receptor) was “Not Active” throughout.
Consider `CC(C)Oc1ccc2c(=O)c(-c3ccccc3)coc2c1` [IPRIFLAVONE], for which the IC50 entry (at Progesterone receptor; on D(4) dopamine receptor (cho-k1); in experiment [1]; in experiment [3]; in experiment [2] (cho-k1)) was “Not Active” each time. Moreover, the Ki result in experiment [1] is on record as “Not Active”.
`CC(C)NCC(O)c1ccc(O)c(O)c1` (stereo not drawn) [ISOPROTERENOL]: the IC50 result (on Progesterone receptor; on D(4) dopamine receptor (cho-k1); in experiment [1]; in experiment [3]; in experiment [2] (cho-k1)) was “Not Active” each time. Also, the Ki result in experiment [1] is reported as “Not Active”.
As to `CCN1CCC[C@H]1CNC(=O)c1cc(S(N)(=O)=O)ccc1OC` [LEVOSULPIRIDE], the IC50 entry (on Progesterone receptor; on D(4) dopamine receptor (cho-k1); in experiment [1]; in experiment [3]; in experiment [2] (cho-k1)) was “Not Active” throughout. The Ki entry in experiment [1] is “Not Active”.
For `CCN(CC)CC(=O)Nc1c(C)cccc1C` [LIDOCAINE], the IC50 result (at Progesterone receptor; at D(4) dopamine receptor (cho-k1); in experiment [1]; in experiment [3]; in experiment [2] (cho-k1)) was “Not Active” each time. Moreover, the Ki entry in experiment [1] is “Not Active”.
On to `COc1c2occc2cc2ccc(=O)oc12` [METHOXSALEN], for which the IC50 entry (on Progesterone receptor; at D(4) dopamine receptor (cho-k1); in experiment [1]; in experiment [3]; in experiment [2] (cho-k1)) was “Not Active” throughout. The Ki result in experiment [1] is on record as “Not Active”.
For the compound `C[C@H]1C[C@@H]2[C@H]([C@@H](O)C[C@@]3(C)[C@H]2CC[C@]3(O)C(=O)CO)[C@@]2(C)C=CC(=O)C=C12` [METHYLPREDNISOLONE], the IC50 entry (on Progesterone receptor; on D(4) dopamine receptor (cho-k1); in experiment [1]; in experiment [3]; in experiment [2] (cho-k1)) was “Not Active” throughout. In addition, the Ki result in experiment [1] was “Not Active”.
Take `CC[C@@H](C(=O)[C@@H](C)[C@@H](O)[C@H](C)[C@@H]1O[C@@H]([C@@H](CC)C(=O)O)CC[C@@H]1C)[C@H]1O[C@]2(C=C[C@@H](O)[C@]3(CC[C@@](C)([C@H]4CC[C@](O)(CC)[C@H](C)O4)O3)O2)[C@H](C)C[C@@H]1C` [SALINOMYCIN]: the IC50 result (at Progesterone receptor; on D(4) dopamine receptor (cho-k1); in experiment [1]; in experiment [3]; in experiment [2] (cho-k1)) was “Not Active” each time. The Ki entry in experiment [1] is on record as “Not Active”.
As to `O=C(O)c1cn(-c2ccc(F)cc2)c2cc(N3CCNCC3)c(F)cc2c1=O` [SARAFLOXACIN], the IC50 result (on Progesterone receptor; at D(4) dopamine receptor (cho-k1); in experiment [1]; in experiment [3]; in experiment [2] (cho-k1)) was “Not Active” throughout. Moreover, the Ki entry in experiment [1] was “Not Active”.
Turning to `CN[C@H]1CC[C@@H](c2ccc(Cl)c(Cl)c2)c2ccccc21` [SERTRALINE], the IC50 (as a rule, the midpoint of a concentration-inhibition curve) is “Not Active” at Progesterone receptor, “Not Active” at D(4) dopamine receptor (cho-k1), 3.39 µM in experiment [2] (read-out: IC50) and “Not Active” against Estrogen receptor. For the same compound, in experiment [2] (read-out: Ki), the Ki worked out at 2.16 µM.
For `CC(C)NCC(O)c1ccc(NS(C)(=O)=O)cc1` (stereo not drawn) [SOTALOL], the IC50 entry (at Progesterone receptor; at D(4) dopamine receptor (cho-k1); in experiment [1]; in experiment [3]; in experiment [2] (cho-k1)) was “Not Active” in each case. For the same compound, the Ki entry in experiment [1] is recorded as “Not Active”.
Turning to `O.O.O.O.O.O.[Cl-].[Cl-].[Sr+2]` [STRONTIUM CHLORIDE HEXAHYDRATE], the IC50 entry (on Progesterone receptor; at D(4) dopamine receptor (cho-k1); in experiment [1]; in experiment [3]; in experiment [2] (cho-k1)) was “Not Active” in each case. For the same compound, in experiment [1], the Ki result is on record as “Not Active”.
As for `CN(C/C=C/C#CC(C)(C)C)Cc1cccc2ccccc12` [TERBINAFINE], the IC50 entry (at Progesterone receptor; on D(4) dopamine receptor (cho-k1); in experiment [1]; in experiment [3]; in experiment [2] (cho-k1)) was “Not Active” each time. Moreover, the inhibition constant Ki entry in experiment [1] is “Not Active”.
Turning to `CCCCNc1ccc(C(=O)OCCN(C)C)cc1` [TETRACAINE], the IC50 result (on Progesterone receptor; at D(4) dopamine receptor (cho-k1); in experiment [1]; in experiment [3]) was “Not Active” throughout. Further, the Ki entry in experiment [1] and in experiment [2] (cho-k1) was “Not Active” in each case.
With `Cn1c(=O)c2nc[nH]c2n(C)c1=O.O` [THEOPHYLLINE], the IC50 entry (at Progesterone receptor; at D(4) dopamine receptor (cho-k1); in experiment [1]; in experiment [3]; in experiment [2] (cho-k1)) was “Not Active” throughout. Besides, the Ki entry in experiment [1] was “Not Active”.
